The source of these data is ChEMBL document CHEMBL3792297, “Studies on phenothiazines: New microtubule-interacting compounds with phenothiazine A-ring as potent antineoplastic agents” (Bioorg Med Chem, 2016).

Assay [1] is filed under the species Ovis aries. Briefly: Inhibition of sheep brain tubulin polymerization at 100 uM by DAPI staining-based fluorimetric method.
Assay [2] can be described thus: Inhibition of sheep brain tubulin polymerization by DAPI staining-based fluorimetric method. Details: species or system Ovis aries.
Assay [3] in a line: Growth inhibition of human OVCAR3 cells after 48 hrs by SRB assay. It is filed as functional. Conditions: OVCAR-3, 48 h.
Assay [4] in a line: Growth inhibition of human DU145 cells after 48 hrs by SRB assay. The assay is classed as functional. Conditions: DU-145, 48 h.
Assay [5] can be described thus: Growth inhibition of human SF295 cells after 48 hrs by SRB assay. The assay is classed as functional. Conditions: SF-295, 48 h. A general note: Sulforhodamine B stains cellular protein and so reports cell mass.
In assay [6] the test system is A498. Briefly: Growth inhibition of human A498 cells after 48 hrs by SRB assay. As to conditions: A498, 48 h. It is filed as functional.
Assay [7] concerns the target Tubulin (Bos taurus, UniProt Q6B856+Q862L2+Q862F3). As to the kind of experiment: Inhibition of bovine tubulin polymerization preincubated for 30 mins followed by GTP addition measured after 20 mins by spectrophotometric method. The assay is classed as protein assay.
A short description of assay [8]: Inhibition of sheep brain tubulin polymerization preincubated for 1 hr measured after 30 mins by turbidimetric-spectrophotometric method. Details: species or system Ovis aries.

The molecule `O=C(c1ccc(F)cc1Cl)N1c2ccccc2Sc2ccccc21` yielded an inhibition in assay [1] of 44%.

In turn, `S=C(c1ccc2c(c1)Sc1ccccc1N2)c1c[nH]c2ccccc12` registered an inhibition in assay [1] of 10%.

In assay [1], `COc1ccc(C(=S)N2c3ccccc3Sc3ccccc32)cc1F` gave an inhibition of 14%.

Regarding `COc1cc([C@@H]2c3cc4c(cc3C[C@H]3COC(=O)[C@@H]32)OCO4)cc(OC)c1OC` [DESOXYPODOPHYLLOTOXIN], in assay [1], the inhibition turned out to be 100%. Besides, 1800 nM corresponded to half-maximal inhibition in assay [2] (IC50). Turning to `COc1ccc(C(=O)c2cc(OC)c(OC)c(OC)c2)cc1O` [PHENSTATIN], the inhibition in assay [1] was found to be 99%. The concentration for half-maximal inhibition (IC50) in assay [2] is 3400 nM; in assay [7], 1000 nM. The 50% growth inhibitory concentration (GI50) in assay [3] was found to be 2.3 nM; in assay [4], 34 nM; in assay [5], 52 nM; in assay [6], 380 nM.

On to `C=C(c1ccc(OC)c(O)c1)c1cc(OC)c(OC)c(OC)c1`, for which, in assay [8], the concentration for half-maximal inhibition (IC50) came out at 1500 nM. Turning to `Cc1cc(C(=O)N2c3ccccc3Sc3ccccc32)ccc1Br`, the inhibition in assay [1] worked out at 43%. Take `COc1ccc(C(=O)N2c3ccccc3Sc3ccccc32)cc1N`: in assay [1], the inhibition was 95%. Also, in assay [2], the IC50 stood at 9500 nM. In assay [1], `O=C(c1ccc(OC(F)(F)F)c(F)c1)N1c2ccccc2Sc2ccccc21` registered an inhibition of 48%.

The term inhibition denotes the change of the read-out against control, counted positive when it falls. As usually defined, the IC50 is the midpoint of a concentration-inhibition curve. High values mean weaker potency, low ones greater potency. By GI50 is commonly meant the concentration at which growth is held to half of that of the control. A high value points to lower sensitivity of the cells.
